Test results published in ChEMBL document CHEMBL1240419, “Synthesis and antibacterial activity of 3-O-carbamoyl derivatives of 6,11-di-O-methylerythromycin A: a novel class of acylides” (2010).
Converted amounts (≈) assume the structure as drawn.

Experiments:
Assay type in all cases: functional
[1] = tested on: Streptococcus pneumoniae; experiment: Antibacterial activity against erythromycin-susceptible Streptococcus pneumoniae ATCC 49619 by broth microdilution method
[2] = tested on: Haemophilus influenzae; experiment: Antibacterial activity against ampicillin-susceptible Haemophilus influenzae ATCC 49247 by broth microdilution method
[3] = tested on: Staphylococcus aureus; experiment: Antibacterial activity against erythromycin-resistant, methicillin-susceptible Staphylococcus aureus A265 by broth microdilution method
[4] = tested on: Haemophilus influenzae; experiment: Antibacterial activity against ampicillin-resistant Haemophilus influenzae 3300 by broth microdilution method
[5] = tested on: Staphylococcus aureus; experiment: Antibacterial activity against erythromycin-susceptible Staphylococcus aureus ATCC 25923 by broth microdilution method
[6] = tested on: Staphylococcus aureus; experiment: Antibacterial activity against erythromycin, methicillin-resistant Staphylococcus aureus A333 by broth microdilution method
[7] = tested on: Streptococcus pneumoniae; experiment: Antibacterial activity against erythromycin-resistant Streptococcus pneumoniae 3469 by broth microdilution method

SMILES	MIC [1]	MIC [2]	MIC [3]	MIC [4]	MIC [5]	MIC [6]	MIC [7]
CCCNC(=O)O[C@H]1[C@H](C)[C@@H](O[C@@H]2O[C@H](C)C[C@H](N(C)C)[C@H]2O)[C@](C)(OC)C[C@@H](C)C(=O)[C@@H](C)[C@@H](OC)[C@](C)(O)[C@@H](CC)OC(=O)[C@@H]1C	0.125 µg/mL (≈ 0.181 µM)	> 64 µg/mL	1 µg/mL (≈ 1.45 µM)	64 µg/mL (≈ 92.9 µM)	2 µg/mL (≈ 2.9 µM)	> 64 µg/mL	0.125 µg/mL (≈ 0.181 µM)
CCCCNC(=O)O[C@H]1[C@H](C)[C@@H](O[C@@H]2O[C@H](C)C[C@H](N(C)C)[C@H]2O)[C@](C)(OC)C[C@@H](C)C(=O)[C@@H](C)[C@@H](OC)[C@](C)(O)[C@@H](CC)OC(=O)[C@@H]1C	0.125 µg/mL (≈ 0.178 µM)	4 µg/mL (≈ 5.69 µM)	1 µg/mL (≈ 1.42 µM)	4 µg/mL (≈ 5.69 µM)	1 µg/mL (≈ 1.42 µM)	> 64 µg/mL	0.125 µg/mL (≈ 0.178 µM)
CCCCCNC(=O)O[C@H]1[C@H](C)[C@@H](O[C@@H]2O[C@H](C)C[C@H](N(C)C)[C@H]2O)[C@](C)(OC)C[C@@H](C)C(=O)[C@@H](C)[C@@H](OC)[C@](C)(O)[C@@H](CC)OC(=O)[C@@H]1C	0.125 µg/mL (≈ 0.174 µM)	4 µg/mL (≈ 5.58 µM)	4 µg/mL (≈ 5.58 µM)	4 µg/mL (≈ 5.58 µM)	2 µg/mL (≈ 2.79 µM)	> 64 µg/mL	0.25 µg/mL (≈ 0.349 µM)
CC[C@H]1OC(=O)[C@H](C)[C@@H](OC(=O)NC2CCCCC2)[C@H](C)[C@@H](O[C@@H]2O[C@H](C)C[C@H](N(C)C)[C@H]2O)[C@](C)(OC)C[C@@H](C)C(=O)[C@@H](C)[C@@H](OC)[C@]1(C)O	0.125 µg/mL (≈ 0.171 µM)	4 µg/mL (≈ 5.49 µM)	2 µg/mL (≈ 2.74 µM)	4 µg/mL (≈ 5.49 µM)	8 µg/mL (≈ 11 µM)	> 64 µg/mL	0.125 µg/mL (≈ 0.171 µM)
CC[C@H]1OC(=O)[C@H](C)[C@@H](OC(=O)NCCCOC)[C@H](C)[C@@H](O[C@@H]2O[C@H](C)C[C@H](N(C)C)[C@H]2O)[C@](C)(OC)C[C@@H](C)C(=O)[C@@H](C)[C@@H](OC)[C@]1(C)O	0.125 µg/mL (≈ 0.174 µM)	32 µg/mL (≈ 44.5 µM)	4 µg/mL (≈ 5.56 µM)	16 µg/mL (≈ 22.3 µM)	8 µg/mL (≈ 11.1 µM)	> 64 µg/mL	0.125 µg/mL (≈ 0.174 µM)
CCOCCCNC(=O)O[C@H]1[C@H](C)[C@@H](O[C@@H]2O[C@H](C)C[C@H](N(C)C)[C@H]2O)[C@](C)(OC)C[C@@H](C)C(=O)[C@@H](C)[C@@H](OC)[C@](C)(O)[C@@H](CC)OC(=O)[C@@H]1C	0.125 µg/mL (≈ 0.171 µM)	8 µg/mL (≈ 10.9 µM)	8 µg/mL (≈ 10.9 µM)	8 µg/mL (≈ 10.9 µM)	8 µg/mL (≈ 10.9 µM)	> 64 µg/mL	0.125 µg/mL (≈ 0.171 µM)
CC[C@H]1OC(=O)[C@H](C)[C@@H](OC(=O)NCCCOC(C)C)[C@H](C)[C@@H](O[C@@H]2O[C@H](C)C[C@H](N(C)C)[C@H]2O)[C@](C)(OC)C[C@@H](C)C(=O)[C@@H](C)[C@@H](OC)[C@]1(C)O	0.5 µg/mL (≈ 0.669 µM)	16 µg/mL (≈ 21.4 µM)	4 µg/mL (≈ 5.35 µM)	32 µg/mL (≈ 42.8 µM)	4 µg/mL (≈ 5.35 µM)	> 64 µg/mL	8 µg/mL (≈ 10.7 µM)
CCCCOCCCNC(=O)O[C@H]1[C@H](C)[C@@H](O[C@@H]2O[C@H](C)C[C@H](N(C)C)[C@H]2O)[C@](C)(OC)C[C@@H](C)C(=O)[C@@H](C)[C@@H](OC)[C@](C)(O)[C@@H](CC)OC(=O)[C@@H]1C	2 µg/mL (≈ 2.63 µM)	32 µg/mL (≈ 42 µM)	16 µg/mL (≈ 21 µM)	64 µg/mL (≈ 84.1 µM)	4 µg/mL (≈ 5.26 µM)	> 64 µg/mL	> 64 µg/mL
CC[C@H]1OC(=O)[C@H](C)[C@@H](OC(=O)NCCCO)[C@H](C)[C@@H](O[C@@H]2O[C@H](C)C[C@H](N(C)C)[C@H]2O)[C@](C)(OC)C[C@@H](C)C(=O)[C@@H](C)[C@@H](OC)[C@]1(C)O	1 µg/mL (≈ 1.42 µM)	32 µg/mL (≈ 45.4 µM)	16 µg/mL (≈ 22.7 µM)	32 µg/mL (≈ 45.4 µM)	4 µg/mL (≈ 5.67 µM)	> 64 µg/mL	8 µg/mL (≈ 11.3 µM)
CC[C@H]1OC(=O)[C@H](C)[C@@H](OC(=O)NCc2ccco2)[C@H](C)[C@@H](O[C@@H]2O[C@H](C)C[C@H](N(C)C)[C@H]2O)[C@](C)(OC)C[C@@H](C)C(=O)[C@@H](C)[C@@H](OC)[C@]1(C)O	0.5 µg/mL (≈ 0.688 µM)	2 µg/mL (≈ 2.75 µM)	1 µg/mL (≈ 1.38 µM)	2 µg/mL (≈ 2.75 µM)	2 µg/mL (≈ 2.75 µM)	> 64 µg/mL	16 µg/mL (≈ 22 µM)
CC[C@H]1OC(=O)[C@H](C)[C@@H](OC(=O)Nc2nccs2)[C@H](C)[C@@H](O[C@@H]2O[C@H](C)C[C@H](N(C)C)[C@H]2O)[C@](C)(OC)C[C@@H](C)C(=O)[C@@H](C)[C@@H](OC)[C@]1(C)O	0.125 µg/mL (≈ 0.171 µM)	32 µg/mL (≈ 43.8 µM)	32 µg/mL (≈ 43.8 µM)	32 µg/mL (≈ 43.8 µM)	32 µg/mL (≈ 43.8 µM)	> 64 µg/mL	8 µg/mL (≈ 11 µM)
CC[C@H]1OC(=O)[C@H](C)[C@@H](OC(=O)NCc2ccccc2)[C@H](C)[C@@H](O[C@@H]2O[C@H](C)C[C@H](N(C)C)[C@H]2O)[C@](C)(OC)C[C@@H](C)C(=O)[C@@H](C)[C@@H](OC)[C@]1(C)O	0.125 µg/mL (≈ 0.17 µM)	8 µg/mL (≈ 10.9 µM)	0.125 µg/mL (≈ 0.17 µM)	4 µg/mL (≈ 5.43 µM)	2 µg/mL (≈ 2.71 µM)	> 64 µg/mL	0.125 µg/mL (≈ 0.17 µM)
CC[C@H]1OC(=O)[C@H](C)[C@@H](OC(=O)NCc2ccc(OC)cc2)[C@H](C)[C@@H](O[C@@H]2O[C@H](C)C[C@H](N(C)C)[C@H]2O)[C@](C)(OC)C[C@@H](C)C(=O)[C@@H](C)[C@@H](OC)[C@]1(C)O	0.5 µg/mL (≈ 0.652 µM)	1 µg/mL (≈ 1.3 µM)	0.125 µg/mL (≈ 0.163 µM)	0.5 µg/mL (≈ 0.652 µM)	0.125 µg/mL (≈ 0.163 µM)	> 64 µg/mL	0.5 µg/mL (≈ 0.652 µM)
CC[C@H]1OC(=O)[C@H](C)[C@@H](OC(=O)NCc2ccc(F)cc2)[C@H](C)[C@@H](O[C@@H]2O[C@H](C)C[C@H](N(C)C)[C@H]2O)[C@](C)(OC)C[C@@H](C)C(=O)[C@@H](C)[C@@H](OC)[C@]1(C)O	0.125 µg/mL (≈ 0.166 µM)	4 µg/mL (≈ 5.3 µM)	0.125 µg/mL (≈ 0.166 µM)	4 µg/mL (≈ 5.3 µM)	4 µg/mL (≈ 5.3 µM)	> 64 µg/mL	0.125 µg/mL (≈ 0.166 µM)
CC[C@H]1OC(=O)[C@H](C)[C@@H](OC(=O)NCc2ccc(Cl)cc2)[C@H](C)[C@@H](O[C@@H]2O[C@H](C)C[C@H](N(C)C)[C@H]2O)[C@](C)(OC)C[C@@H](C)C(=O)[C@@H](C)[C@@H](OC)[C@]1(C)O	0.125 µg/mL (≈ 0.162 µM)	2 µg/mL (≈ 2.59 µM)	0.125 µg/mL (≈ 0.162 µM)	4 µg/mL (≈ 5.19 µM)	4 µg/mL (≈ 5.19 µM)	> 64 µg/mL	0.5 µg/mL (≈ 0.648 µM)
CC[C@H]1OC(=O)[C@H](C)[C@@H](OC(=O)NCc2ccc(Br)cc2)[C@H](C)[C@@H](O[C@@H]2O[C@H](C)C[C@H](N(C)C)[C@H]2O)[C@](C)(OC)C[C@@H](C)C(=O)[C@@H](C)[C@@H](OC)[C@]1(C)O	0.125 µg/mL (≈ 0.153 µM)	2 µg/mL (≈ 2.45 µM)	0.125 µg/mL (≈ 0.153 µM)	2 µg/mL (≈ 2.45 µM)	0.125 µg/mL (≈ 0.153 µM)	32 µg/mL (≈ 39.2 µM)	0.125 µg/mL (≈ 0.153 µM)
CC[C@H]1OC(=O)[C@H](C)[C@@H](OC(=O)NCc2ccc(O)cc2)[C@H](C)[C@@H](O[C@@H]2O[C@H](C)C[C@H](N(C)C)[C@H]2O)[C@](C)(OC)C[C@@H](C)C(=O)[C@@H](C)[C@@H](OC)[C@]1(C)O	1 µg/mL (≈ 1.33 µM)	1 µg/mL (≈ 1.33 µM)	0.25 µg/mL (≈ 0.332 µM)	1 µg/mL (≈ 1.33 µM)	1 µg/mL (≈ 1.33 µM)	> 64 µg/mL	32 µg/mL (≈ 42.5 µM)
CC[C@H]1OC(=O)[C@H](C)[C@@H](OC(=O)NCc2ccc(C)cc2)[C@H](C)[C@@H](O[C@@H]2O[C@H](C)C[C@H](N(C)C)[C@H]2O)[C@](C)(OC)C[C@@H](C)C(=O)[C@@H](C)[C@@H](OC)[C@]1(C)O	0.125 µg/mL (≈ 0.166 µM)	4 µg/mL (≈ 5.33 µM)	0.125 µg/mL (≈ 0.166 µM)	4 µg/mL (≈ 5.33 µM)	0.25 µg/mL (≈ 0.333 µM)	64 µg/mL (≈ 85.2 µM)	0.25 µg/mL (≈ 0.333 µM)
CC[C@H]1OC(=O)[C@H](C)[C@@H](OC(=O)NCCc2ccccc2)[C@H](C)[C@@H](O[C@@H]2O[C@H](C)C[C@H](N(C)C)[C@H]2O)[C@](C)(OC)C[C@@H](C)C(=O)[C@@H](C)[C@@H](OC)[C@]1(C)O	4 µg/mL (≈ 5.33 µM)	4 µg/mL (≈ 5.33 µM)	8 µg/mL (≈ 10.7 µM)	4 µg/mL (≈ 5.33 µM)	8 µg/mL (≈ 10.7 µM)	> 64 µg/mL	64 µg/mL (≈ 85.2 µM)
